Laboratory results from patent publication US10947226B2, “Bicyclic pyridone lactams and methods of use thereof” (Genentech, Inc., priority 2016, dated 2021).

Target: human RIP1 kinase domain (2-375) (Homo sapiens (Human), UniProt Q13546)
Experiment: RIP1 kinase inhibition assay (biochemical, Transcreener ADP fluorescence polarization)
Settings: Ki app (Morrison tight-binding fit); 50 nM enzyme, 50 μM ATP, 2 hours incubation, pH 7.5
Experimental: RIP1 Kinase Inhibition Assays (Biochemical Assay)
The compounds of the present invention were tested for their capacity to inhibit RIP1K activity as described below.
Enzyme assay: The ability of the receptor interacting protein kinase (RIPK1) to catalyze the hydrolysis of adenosine-5′-triphosphate (ATP) is monitored using the Transcreener ADP (adenosine-5′-diphosphate) assay (BellBrook Labs). Purified human RIP1 kinase domain (2-375) (50 nM) derived from a baculovirus-infected insect cell expression system is incubated with test compounds for 2 hours in 50 mM Hepes buffer (pH 7.5) containing 30 mM MgCl2, 1 mM dithiothreitol, 50 μM ATP, 0.002% Brij-35, and 0.5% dimethyl sulfoxide (DMSO). Reactions are quenched by the addition of 1× Bell Brooks Stop buffer B (20 mM Hepes (ph 7.5), 40 mM ethylenediaminetetraacetic acid and 0.02% Brij-35) containing an additional 12 mM EDTA and 55 μg/mL ADP2 antibody and 4 nM ADP-AlexaFluor® 633 tracer. The tracer bound to the antibody is displaced by the ADP generated during the RIP1K reaction, which causes a decrease in fluorescence polarization that is measured by laser excitation at 633 nm with a FP microplate reader M1000. Fractional activity was plotted against test article concentration. Using Genedata Screener software (Genedata; Basel, Switzerland), the data were fit to the tight-binding apparent inhibition constant (Ki^app) Morrison equation [Williams, J. W. and Morrison, J. F. (1979) The kinetics of reversible tight-binding inhibition. Methods Enzymol 63: 437-67]. The following equation was used to calculate fractional activity and Ki^app: […]
where [E]T and [I]T are the total concentrations of active enzyme and test article, respectively. […]

Chain of human RIP1 kinase domain (2-375) (Q13546 2-375): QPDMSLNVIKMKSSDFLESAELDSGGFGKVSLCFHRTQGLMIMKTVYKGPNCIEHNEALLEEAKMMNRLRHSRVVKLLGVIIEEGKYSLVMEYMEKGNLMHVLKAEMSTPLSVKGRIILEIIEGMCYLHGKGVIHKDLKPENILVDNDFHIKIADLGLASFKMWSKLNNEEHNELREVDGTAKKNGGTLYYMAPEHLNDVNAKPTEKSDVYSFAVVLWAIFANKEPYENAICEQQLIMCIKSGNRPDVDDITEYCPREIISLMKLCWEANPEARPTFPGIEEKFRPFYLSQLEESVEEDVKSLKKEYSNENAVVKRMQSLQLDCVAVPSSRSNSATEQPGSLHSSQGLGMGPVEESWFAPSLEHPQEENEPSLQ

SMILES	Ki [µM]
CN1C(=O)[C@@H](NC(=O)c2nc3n(n2)[C@H](c2ccccc2F)CC3)CCc2cn(CC3CC3)c(=O)cc21 (single isomer, unassigned) [Example 14]	0.056
CN1C(=O)[C@@H](NC(=O)c2nc3n(n2)[C@H](c2ccccc2F)CC3)CCc2cn(C)c(=O)cc21 [Example 13, (5S)-5-(2-fluorophenyl)-N-[(3S)-1,7-dimethyl-2,8-dioxo-4,5-dihydro-3H-pyrido[4,3-b]azepin-3-yl]-6,7-dihydro-5H-pyrrolo[1,2-b][1,2,4]triazole-2-carboxamide]	0.0811
CN1C(=O)[C@H](NC(=O)c2ncn(Cc3ccccc3F)n2)CCc2cn(CC3CC3)c(=O)cc21 (single isomer, unassigned) [Example 17]	6.9
CCn1cc2c(cc1=O)N(C)C(=O)[C@@H](NC(=O)c1nc3n(n1)[C@H](c1ccccc1F)CC3)CC2 (single isomer, unassigned) [Example 18]	0.11
CN1C(=O)[C@@H](NC(=O)c2ncn(Cc3ccccc3F)n2)CCn2c1cccc2=O (single isomer, unassigned) [Example 4]	0.29
CN1C(=O)[C@@H](NC(=O)c2ncn(Cc3ccccc3)n2)CCc2c1ccc(=O)n2C (single isomer, unassigned) [Example 1]	0.233
CN1C(=O)[C@@H](NC(=O)c2nc3n(n2)[C@H](c2ccccc2F)CC3)CCc2cc(=O)n(C)cc21 (single isomer, unassigned) [Example 11]	0.231
CN1C(=O)[C@H](NC(=O)c2nc3n(n2)[C@H](c2ccccc2F)CC3)CCc2cc(=O)n(C)cc21 (single isomer, unassigned) [Example 12]	> 10
CN1C(=O)[C@@H](NC(=O)c2ncn(Cc3ccccc3)n2)CCc2cn(C)c(=O)cc21 (single isomer, unassigned) [Example 5]	0.079
CN1C(=O)[C@H](NC(=O)c2ncn(Cc3ccccc3)n2)CCc2c1ccc(=O)n2C (single isomer, unassigned) [Example 23]	> 10
CCn1cc2c(cc1=O)N(C)C(=O)[C@H](NC(=O)c1nc3n(n1)[C@H](c1ccccc1F)CC3)CC2 (single isomer, unassigned) [Example 20]	> 10
CN1C(=O)[C@H](NC(=O)c2nc3n(n2)[C@H](c2ccccc2F)CC3)CCc2cn(CC3CC3)c(=O)cc21 (single isomer, unassigned) [Example 16]	6.9
CN1C(=O)[C@@H](NC(=O)c2ncn(Cc3ccccc3)n2)CCn2c1cccc2=O (single isomer, unassigned) [Example 3]	0.489

The next lines start with the values.

Ki [µM]	SMILES
0.156	CN1C(=O)[C@@H](NC(=O)c2ncn(Cc3ccccc3F)n2)CCc2c1ccc(=O)n2C (single isomer, unassigned) [Example 2]
> 10	CCn1cc2c(cc1=O)N(C)C(=O)[C@H](NC(=O)c1ncn(Cc3ccccc3F)n1)CC2 (single isomer, unassigned) [Example 21]
0.173	CN1C(=O)[C@@H](NC(=O)c2ncn(Cc3ccccc3)n2)CCc2cc(=O)n(C)cc21 (single isomer, unassigned) [Example 7]
> 10	CN1C(=O)[C@H](NC(=O)c2ncn(Cc3ccccc3F)n2)CCc2cc(=O)n(C)cc21 (single isomer, unassigned) [Example 10]
> 10	CN1C(=O)[C@H](NC(=O)c2ncn(Cc3ccccc3)n2)CCc2cc(=O)n(C)cc21 (single isomer, unassigned) [Example 8]
> 10	CN1C(=O)[C@H](NC(=O)c2ncn(Cc3ccccc3F)n2)CCc2c1ccc(=O)n2C (single isomer, unassigned) [Example 22]
0.111	CN1C(=O)[C@@H](NC(=O)c2ncn(Cc3ccccc3F)n2)CCc2cc(=O)n(C)cc21 (single isomer, unassigned) [Example 9]
0.039	CN1C(=O)[C@@H](NC(=O)c2ncn(Cc3ccccc3F)n2)CCc2cn(CC3CC3)c(=O)cc21 (single isomer, unassigned) [Example 15]
0.049	CN1C(=O)[C@@H](NC(=O)c2ncn(Cc3ccccc3F)n2)CCc2cn(C)c(=O)cc21 (single isomer, unassigned) [Example 6]
0.11	CCn1cc2c(cc1=O)N(C)C(=O)[C@@H](NC(=O)c1ncn(Cc3ccccc3F)n1)CC2 (single isomer, unassigned) [Example 19]
